Results on 1 molecule are retold here after patent US20250114389A1, “NUCLEOSIDES AND NUCLEOTIDES ANALOGS AS ANTIVIRAL AGENTS” (Emory University, priority 2021, published 2025).

pEC50: −log10 of the molar value.

Data set [1] can be described thus: Cytotoxicity in Huh7 cells. The format is cell-based. Particulars: human.
Data set [2] in a line: Single dose range-finding study in Golden Syrian hamsters. The format is in vivo. Particulars: for Notes (clinical observations): hamster, in vivo, ip. On the procedure: 3 male Syrian hamsters were injected intraperitoneally with a Compound A starting at 5 mg/kg at time 0 with […] administered every 30 minutes upto a final 80 mg/kg. Clinical observations of toxicity were recorded.

Data set [3] in a line: Multi-dose range-finding study in Golden Syrian hamsters. Particulars: hamster, in vivo, po, 30 mg/kg. Here is the method:
Multi-dose range-finding study in Golden Syrian Hamsters: 3 male Syrian hamsters were given 30 mg/kg of compound A by oral gavage daily for 7 days. The body weight of each of the individual hamsters during the nucleoside analog treatment was measured (grams per day) over a 7 day period. […] The body temperature of the hamsters was also measured over the course of the treatment in two of the hamsters (FIG. 9, Rodent 1 and Rodent 2). The third hamster lost the chip, and, despite re-chipping, temperatures were still not recording.
Daily observations of the hamsters were taken, particularly with respect to their ability to eat and drink normally, and other behavior and activity ratings (B.A.R.), and the observations are summarized below in Table 10.

The subject of data set [4] is SARS-CoV-2. In words: Anti-SARS-CoV-2 activity in Caco2 cells (virus yield inhibition).
Data set [5] relates to SARS-CoV-2. The following applies: at 1 microM; FIGS. 1A-E (monocytes, epithelial cells, extracellular, total virus).

Molecule `N#C[C@@]1(n2ccc(N)nc2=O)O[C@H](CO)[C@@H](O)[C@H]1O` [Compound A, (2R,3R,4S,5R)-2-(4-amino-2-oxopyrimidin-1(2H)-yl)-3,4-dihydroxy-5-(hydroxymethyl)-tetrahydrofuran-2-carbonitrile] returned a CC50 in data set [1] above 100000 nM. For the same molecule, the signs of toxicity entry in data set [2] (IP injection, total dose of 80 mg/kg, hamsters) was “no signs of toxicity”. The “Notes (clinical observations)” value in data set [2] (55 mg/kg) is recorded as “B.A.R.* No sign of discomfort”. Further, in data set [2] (80 mg/kg), the “Notes (clinical observations)” value was “B.A.R.* No sign of discomfort”. Moreover, in data set [3], the “Daily Observations” value is given as “B.A.R. Eating”; the “ability to eat and drink” value was “able to eat and drink normally”. For the same molecule, the pEC50 in the data set with SARS-CoV-2 [4] (Severe acute respiratory syndrome coronavirus 2, Caco-2, read-out: Anti-SARS-CoV-2 Activity (Caco2) EC50) is 6.52. Moreover, in the data set with SARS-CoV-2 [4] (Severe acute respiratory syndrome coronavirus 2, Caco-2, read-out: Anti-SARS-CoV-2 Activity (Caco2) EC90), the EC90 worked out at 1200 nM. Moreover, in the data set on SARS-CoV-2 [5], the “reduction of viral loads” value is on record as 2-3 log.
